The source of these data is patent publication US20220324965A1, “COMBINATION THERAPY INVOLVING ANTIBODIES AGAINST CLAUDIN 18.2 AND IMMUNE CHECKPOINT INHIBITORS FOR TREATMENT OF CANCER” (Astellas Pharma Inc., priority 2019, published 2022).

Common to all, as to type: in vivo
Assay [1] relates to CLS-103 LVT-murinCLDN18.2 syngeneic tumors. Nature of the assay: Efficacy of IMAB362 plus anti-mPD-1 antibody in subcutaneous syngeneic gastric carcinoma model, endpoint day 14 (Example 1). To be noted: female Crl:NMRI(Han) mice, n=12 per group, IMAB362 800 μg/mouse, anti-mPD-1 antibody 100 μg/mouse, intraperitoneal twice per week, vs Rituximab/isotype control group. An excerpt: In order to determine whether a combination of an anti-CLDN18.2 antibody and an immune checkpoint inhibitor provides improved anti-tumor activity over the single agents alone in vivo, anti-tumor activity of IMAB362 in combination with an anti-mPD-1 antibody was examined in a subcutaneously transplanted syngeneic gastric carcinoma model in immunocompetent outbred Crl:NMRI(Han) mice using CLS-103 cells with lentiviral transduction of murine CLDN18.2 (CLS-103 […]). Rituximab was used as an isotype control of IMAB362.
(§1) • Anti-CLDN18.2 antibody: IMAB362 (Astellas Pharma Inc.) • control antibody: Rituximab BS Intravenous Infusion [KHK] […]
Lentivirally transduced mouse CLDN18.2 expressing tumor cells (CLS-103 LVT-murinCLDN18.2) were engrafted subcutaneously into the right flank of female Crl:NMRI(Han) mice (10-week-old) at 2×10^6 cells/mouse. Mice were randomized based on tumor volume measured 2 days after engraftment into 4 groups (n=12 per group). […] Tumors were measured twice per week. […] Tumor volume was determined by length×width×width×0.5. Tumor growth inhibition (TGI[%]) of each group was calculated using the equation described below. […]

The test system is the same in assay [2]. Nature of the assay: Long-term efficacy of IMAB362 plus anti-mPD-1 antibody in subcutaneous syngeneic gastric carcinoma model, up to day 28 (Example 2). To be noted: IMAB362 800 μg/mouse, anti-mPD-1 antibody 100 μg/mouse, intraperitoneal twice per week.
From the text: In order to determine whether a combination of an anti-CLDN18.2 antibody and an immune checkpoint inhibitor improves anti-tumor activity over the single agents alone in vivo in long-term period, anti-tumor activity of IMAB362 in combination with an anti-mPD-1 antibody was examined up to day 28 in a subcutaneously transplanted syngeneic gastric carcinoma model in immunocompetent outbred Crl:NMRI(Han) mice using CLS-103 cells with lentiviral transduction of murine CLDN18.2 (CLS-103 LVT-murinCLDN18.2). Rituximab was used as an isotype control of IMAB362.
as §1
Lentivirally transduced mouse CLDN18.2 expressing tumor cells (CLS-103 LVT-murinCLDN18.2) were engrafted subcutaneously into the right flank of female Crl:NMRI(Han) mice (11-week-old) at 2×10^6 cells/mouse. Mice were randomized based on tumor volume measured 2 days after engraftment into 4 groups (n=12 per group). […] Tumors were measured twice per week. […] Tumor volume was determined by length×width×width×0.5. Mean tumor volume was calculated up to day 21 since 1 of 12 mice in the Rituximab/isotype treated group, as well as in the anti-mPD-1 antibody single agent group, was sacrificed due to tumor size being over 2000 mm^3. […] Complete regression (CR) was determined up to day 28 as the tumor volume of individual regressed to zero. […]

For assay [3] the test system is unchanged. Nature of the assay: Efficacy of IMAB362 plus anti-mCTLA-4 antibody in subcutaneous syngeneic gastric carcinoma model, endpoint day 14 (Example 3). To be noted: n=12 per group, IMAB362 800 μg/mouse, anti-mCTLA-4 antibody 300 μg/mouse, intraperitoneal twice per week, vs Rituximab/isotype control group.
From the text: In order to determine whether a combination of an anti-CLDN18.2 antibody and an immune checkpoint inhibitor improves anti-tumor activity over the single agents alone in vivo, anti-tumor activity of IMAB362 in combination with an anti-mCTLA-4 antibody was examined in a subcutaneously transplanted syngeneic gastric carcinoma model in immunocompetent outbred Crl:NMRI(Han) mice using CLS-103 cells with lentiviral transduction of murine CLDN18.2 (CLS-103 LVT-murinCLDN18.2). Rituximab was used as an isotype control of IMAB362.
as §1
(§2) Lentivirally transduced mouse CLDN18.2 expressing tumor cells (CLS-103 LVT-murinCLDN18.2) were engrafted subcutaneously into the right flank of female Crl:NMRI(Han) mice (11-week-old) at 2×10^6 cells/mouse. Mice were randomized based on tumor volume measured 2 days after engraftment into 4 groups (n=12 per group). […] Tumors were measured twice per week. […] Tumor volume was determined by length×width×width×0.5. Tumor growth inhibition (TGI [%]) or tumor regression rate (TRR [%]) of each group was calculated using the equations described below. […]

For assay [4] the test system is unchanged. Nature of the assay: Efficacy of IMAB362 plus anti-mPD-L1 antibody in subcutaneous syngeneic gastric carcinoma model, endpoint day 14 (Example 4). The note with it: n=12 per group, IMAB362 800 μg/mouse, anti-mPD-L1 antibody 300 μg/mouse, intraperitoneal twice per week, vs Rituximab/isotype control group.
From the text: In order to determine whether a combination of an anti-CLDN18.2 antibody and an immune checkpoint inhibitor improves anti-tumor activity over the single agents alone in vivo, anti-tumor activity of IMAB362 in combination with an anti-mPD-L1 antibody was examined in a subcutaneously transplanted syngeneic gastric carcinoma model in immunocompetent outbred Crl:NMRI(Han) mice using CLS-103 cells with lentiviral transduction of murine CLDN18.2 (CLS-103 LVT-murinCLDN18.2). Rituximab was used as an isotype control of IMAB362.
as §1, §2

With “IMAB362: chimeric IgG1 antibody directed against CLDN18.2; heavy chain SEQ ID NO: 51, light chain SEQ ID NO: 24”, the “Tumor growth inhibition (TGI)” value was 50% in assay [1]; 40% in assay [2] (day 21, n=12 per group, vs Rituximab/isotype control group); 72% in assay [3]; 60% in assay [4]. Moreover, the “number of mice with complete regression (CR) in the group of 12 mice” value in assay [2] (day 28, CR = tumor volume regressed to zero) turned out to be 2.
